The results in this text go back to patent US9630956B2, “Compounds useful as inhibitors of ATR kinase” (Vertex Pharmaceuticals Incorporated, priority 2010, dated 2017).

Test [1] addresses full-length ATR (Homo sapiens (Human), UniProt Q13535). Put plainly: ATR Inhibition Assay (radioactive-phosphate incorporation). The conditions noted are these: ATR Inhibition Ki(app); 10 μM ATP, 800 μM target peptide, 5 nM full-length ATR, 25° C. It counts as biochemical. The gist of the method: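 Full-length ATR at 5 nM was run in 50 mM Tris/HCl pH 7.5, 10 mM MgCl2 and 1 mM DTT with 10 μM [γ-33P]ATP and 800 μM peptide at 25° C, after a 10 min compound pre-incubation (top final 15 μM, 3-fold dilutions, 7% DMSO). Reactions were stopped at 24 h and counted after phosphocellulose capture. Ki(app) came from non-linear regression of initial rates.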

Test [2] has as its system HCT116 colorectal cancer cells. Put plainly: Cisplatin Sensitization Assay (96h cell viability MTS). It counts as cell-based. The conditions noted are these: concentration of compound required to reduce the IC50 of Cisplatin alone by at least 3-fold, 96h MTS. As for the experimental part: Compounds can be screened for their ability to sensitize HCT116 colorectal cancer cells to Cisplatin using a 96h cell viability (MTS) assay. […] Compounds and Cisplatin are then both added simultaneously to the cell media in 2-fold serial dilutions from a top final concentration of 10 μM as a full matrix of concentrations in a final cell volume of 200 μl, and the cells are then incubated at 37° C. in 5% CO2. After 96h, 40 μl of […] (Promega G358a) is added to each well and the cells are incubated for 1 h at 37° C. in 5% CO2.

Sequence of full-length ATR (Q13535 whole entry): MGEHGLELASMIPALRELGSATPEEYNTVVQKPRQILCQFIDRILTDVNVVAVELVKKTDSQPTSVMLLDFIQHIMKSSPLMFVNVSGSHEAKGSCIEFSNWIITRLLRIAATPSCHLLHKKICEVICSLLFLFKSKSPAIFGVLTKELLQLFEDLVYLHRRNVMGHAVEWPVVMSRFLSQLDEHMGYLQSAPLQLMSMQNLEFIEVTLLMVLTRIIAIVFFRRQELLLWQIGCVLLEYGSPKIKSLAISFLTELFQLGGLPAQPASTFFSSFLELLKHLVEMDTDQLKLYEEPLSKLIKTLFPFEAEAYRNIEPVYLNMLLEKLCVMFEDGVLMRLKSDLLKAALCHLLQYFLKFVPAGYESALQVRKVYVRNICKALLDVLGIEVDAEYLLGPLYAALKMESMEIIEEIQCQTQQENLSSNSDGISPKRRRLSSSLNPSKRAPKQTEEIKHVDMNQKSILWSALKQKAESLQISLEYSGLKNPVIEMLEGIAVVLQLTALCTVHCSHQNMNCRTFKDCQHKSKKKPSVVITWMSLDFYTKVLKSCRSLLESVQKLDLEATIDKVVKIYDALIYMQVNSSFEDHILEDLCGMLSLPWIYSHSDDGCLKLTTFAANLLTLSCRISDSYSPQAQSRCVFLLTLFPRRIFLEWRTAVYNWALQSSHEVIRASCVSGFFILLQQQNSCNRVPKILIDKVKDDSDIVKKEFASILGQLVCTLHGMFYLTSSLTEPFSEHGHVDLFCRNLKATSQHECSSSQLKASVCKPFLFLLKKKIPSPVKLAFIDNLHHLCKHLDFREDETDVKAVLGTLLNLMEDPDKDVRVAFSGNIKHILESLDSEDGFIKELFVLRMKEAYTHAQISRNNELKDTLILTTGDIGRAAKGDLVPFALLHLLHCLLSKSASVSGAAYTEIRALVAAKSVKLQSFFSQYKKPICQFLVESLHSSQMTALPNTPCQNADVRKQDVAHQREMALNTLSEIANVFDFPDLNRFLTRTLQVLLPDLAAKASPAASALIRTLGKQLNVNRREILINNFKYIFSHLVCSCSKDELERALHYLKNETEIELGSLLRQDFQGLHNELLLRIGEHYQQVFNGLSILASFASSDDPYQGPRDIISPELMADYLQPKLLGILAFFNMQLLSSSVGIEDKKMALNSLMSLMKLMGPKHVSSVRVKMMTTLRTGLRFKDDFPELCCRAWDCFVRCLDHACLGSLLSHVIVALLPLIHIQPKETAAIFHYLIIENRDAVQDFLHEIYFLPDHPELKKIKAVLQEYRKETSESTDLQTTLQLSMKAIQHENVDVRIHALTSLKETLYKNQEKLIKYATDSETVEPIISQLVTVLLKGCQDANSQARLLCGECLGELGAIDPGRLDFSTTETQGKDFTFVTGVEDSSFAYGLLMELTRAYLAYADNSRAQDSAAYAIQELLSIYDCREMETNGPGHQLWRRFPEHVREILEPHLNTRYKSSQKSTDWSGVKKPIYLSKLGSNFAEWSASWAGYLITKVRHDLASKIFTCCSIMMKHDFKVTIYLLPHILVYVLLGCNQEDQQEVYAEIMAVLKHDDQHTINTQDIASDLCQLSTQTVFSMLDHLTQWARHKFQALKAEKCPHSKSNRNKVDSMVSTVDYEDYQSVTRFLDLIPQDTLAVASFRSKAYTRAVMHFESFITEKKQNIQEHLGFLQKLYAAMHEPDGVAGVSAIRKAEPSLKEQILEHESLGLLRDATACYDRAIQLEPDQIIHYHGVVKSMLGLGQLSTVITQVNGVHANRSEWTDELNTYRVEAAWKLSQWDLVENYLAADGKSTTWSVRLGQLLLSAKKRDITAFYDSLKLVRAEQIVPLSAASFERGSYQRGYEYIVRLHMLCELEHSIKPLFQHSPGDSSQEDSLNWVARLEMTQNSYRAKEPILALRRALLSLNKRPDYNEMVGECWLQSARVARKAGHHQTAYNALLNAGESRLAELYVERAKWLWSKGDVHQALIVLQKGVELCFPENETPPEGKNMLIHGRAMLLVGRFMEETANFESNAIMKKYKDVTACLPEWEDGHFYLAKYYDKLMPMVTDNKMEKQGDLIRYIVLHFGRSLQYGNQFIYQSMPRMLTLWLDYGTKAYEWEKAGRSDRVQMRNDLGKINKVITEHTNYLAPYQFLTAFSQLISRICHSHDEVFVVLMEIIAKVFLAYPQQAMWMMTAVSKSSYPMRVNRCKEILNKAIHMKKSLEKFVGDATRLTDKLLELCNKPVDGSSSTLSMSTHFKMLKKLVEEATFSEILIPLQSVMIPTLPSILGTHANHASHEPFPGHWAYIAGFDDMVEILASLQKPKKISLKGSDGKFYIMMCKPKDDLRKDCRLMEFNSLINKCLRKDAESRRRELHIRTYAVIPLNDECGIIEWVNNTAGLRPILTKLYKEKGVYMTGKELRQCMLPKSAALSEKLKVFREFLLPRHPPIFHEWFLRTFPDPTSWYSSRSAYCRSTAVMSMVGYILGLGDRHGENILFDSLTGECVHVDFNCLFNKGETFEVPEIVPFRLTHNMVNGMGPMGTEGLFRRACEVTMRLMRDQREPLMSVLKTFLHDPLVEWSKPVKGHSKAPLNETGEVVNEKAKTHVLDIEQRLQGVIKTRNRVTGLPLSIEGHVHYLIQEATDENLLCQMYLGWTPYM

For the compound `CC[C@H](C)Cn1cc(-c2cnc(N)c(-c3cc(-c4ccc(CNC)cc4)no3)n2)ccc1=O` [Compound I-97], in test [1], the Ki was no more than 5 nM. The “CP3 shift” value in test [2] was found to be 0.078 µM.

Regarding `CNCc1ccc(-c2cc(-c3nc(-c4ccc(=O)n(C(C)C(=O)N5CCCC5)c4)cnc3N)on2)cc1` (centres unmarked) [Compound I-102], in test [1], the Ki was no more than 5 nM. For the same compound, the “CP3 shift” value in test [2] stood at 0.078 µM.

As for `CC(N)c1cccc(-c2cc(-c3nc(-c4ccc(=O)n(CC5(C)CC5)c4)cnc3N)on2)c1` (centres unmarked) [Compound I-105], in test [1], the Ki is no more than 5 nM. The “CP3 shift” value in test [2] came to 0.02 µM.

Consider `CC(N)c1cccc(-c2cc(-c3nc(-c4ccc(=O)n(CC5CC5C)c4)cnc3N)on2)c1` (centres unmarked) [Compound I-106], for which, in test [1], the Ki was no more than 5 nM. Also, the “CP3 shift” value in test [2] stood at 0.039 µM.

Turning to `CNCc1ccc(-c2cc(-c3nc(-c4c[nH]c(=O)c(C5CCCC5)c4)cnc3N)on2)cc1` [Compound I-107], the Ki in test [1] is no more than 5 nM. In addition, in test [2], the “CP3 shift” value was 0.039 µM.

In the case of `CCCC(CC)c1cc(-c2cnc(N)c(-c3cc(-c4ccc(CNC)cc4)no3)n2)c[nH]c1=O` (centres unmarked) [Compound I-116], the Ki in test [1] was no more than 5 nM. Besides, the “CP3 shift” value in test [2] came out at 0.02 µM.

Consider `Nc1ncc(-c2c[nH]c(=O)c(C3CCCC3)c2)nc1-c1cc(-c2ccc(CNC3CC3)cc2)no1` [Compound I-119], for which the Ki in test [1] is no more than 5 nM. In addition, in test [2], the “CP3 shift” value turned out to be 0.156 µM.

Regarding `CCCC(CC)c1cc(-c2cnc(N)c(-c3cc(-c4ccc(CNC5CC5)cc4)no3)n2)c[nH]c1=O` (centres unmarked) [Compound I-120], in test [1], the Ki was no more than 5 nM. Further, the “CP3 shift” value in test [2] came out at 0.078 µM.

In the case of `CNCc1ccc(-c2cc(-c3nc(-c4ccc(=O)n(CCC5CCCC5)c4)cnc3N)on2)cc1` [Compound I-122], the Ki in test [1] was no more than 5 nM. Further, the “CP3 shift” value in test [2] was found to be 0.078 µM.

For `CNCc1ccc(-c2cc(-c3nc(-c4c[nH]c(=O)c(-c5ccccc5)c4)cnc3N)on2)cc1` [Compound I-123], the Ki in test [1] was no more than 5 nM. The “CP3 shift” value in test [2] was determined as 0.078 µM.

For the compound `CC1CCC(n2cc(-c3cnc(N)c(-c4cc(-c5cccc(C(C)N)c5)no4)n3)ccc2=O)C1` (centres unmarked) [Compound I-124], in test [1], the Ki is no more than 5 nM. Besides, in test [2], the “CP3 shift” value is 0.039 µM.

Consider `CNCc1ccc(-c2cc(-c3nc(-c4ccc(=O)n(C(C)(C)C#N)c4)cnc3N)on2)cc1` [Compound I-125], for which the Ki in test [1] was no more than 5 nM. Besides, the “CP3 shift” value in test [2] is 0.015 µM.

Take `CCC(CC)n1cc(-c2cnc(N)c(-c3cc(-c4ccc(CNCCF)cc4)no3)n2)ccc1=O` [Compound I-126]: the Ki in test [1] is no more than 5 nM. Also, the “CP3 shift” value in test [2] is 0.625 µM.

As to `CCC(CC)n1cc(-c2cnc(N)c(-c3cc(-c4ccc(CNC5CC(F)(F)C5)cc4)no3)n2)ccc1=O` [Compound I-127], in test [1], the Ki is no more than 5 nM. Further, the “CP3 shift” value in test [2] was found to be 0.312 µM.

`CCC(CC)n1cc(-c2cnc(N)c(-c3cc(-c4ccc(CNC5CC5)cc4F)no3)n2)ccc1=O` [Compound I-128]: in test [1], the Ki is no more than 5 nM. Further, in test [2], the “CP3 shift” value amounted to 0.078 µM.

Turning to `CCC(CC)n1cc(-c2cnc(N)c(-c3cc(-c4ccc(CNC)cc4F)no3)n2)ccc1=O` [Compound I-129], the Ki in test [1] was no more than 5 nM. Besides, the “CP3 shift” value in test [2] is 0.02 µM.

Turning to `CCC(CC)n1cc(-c2cnc(N)c(-c3cc(-c4ccc(CN[C@@H]5CCC(F)C5)cc4)no3)n2)ccc1=O` (some centres unmarked) [Compound I-130], the Ki in test [1] is no more than 5 nM. Also, in test [2], the “CP3 shift” value turned out to be 0.078 µM.

Regarding `CCC(CC)n1cc(-c2cnc(N)c(-c3cc(-c4cccc(C(N)CF)c4)no3)n2)ccc1=O` (centres unmarked) [Compound I-131], in test [1], the Ki is no more than 5 nM. Besides, the “CP3 shift” value in test [2] is 0.02 µM.

As for `CCC(CC)c1cc(-c2cnc(N)c(-c3cc(-c4ccc(CNC)cc4F)no3)n2)c[nH]c1=O` [Compound I-132], the Ki in test [1] is no more than 5 nM. Further, the “CP3 shift” value in test [2] is 0.01 µM.

For `CCC(N)c1cccc(-c2cc(-c3nc(-c4ccc(=O)n(C(CC)CC)c4)cnc3N)on2)c1` (centres unmarked) [Compound I-133], the Ki in test [1] was no more than 5 nM. Further, the “CP3 shift” value in test [2] turned out to be 0.039 µM.

For `CCC(C#N)(CC)n1cc(-c2cnc(N)c(-c3cc(-c4ccc(CNC)cc4)no3)n2)ccc1=O` [Compound I-134], in test [1], the Ki was no more than 5 nM. For the same compound, the “CP3 shift” value in test [2] is 0.02 µM.

For the compound `CCC(C#N)(CC)n1cc(-c2cnc(N)c(-c3cc(-c4cccc([C@@H](C)N)c4)no3)n2)ccc1=O` [Compound I-138], the Ki in test [1] is no more than 5 nM. In test [2], the “CP3 shift” value turned out to be 0.01 µM.

Turning to `CCC(CC)n1cc(-c2cnc(N)c(-c3cc(-c4ccc(CNC5(C)CC5)cc4)no3)n2)ccc1=O` [Compound I-140], the Ki in test [1] was no more than 5 nM. In test [2], the “CP3 shift” value amounted to 0.156 µM.

Consider `CNCc1ccc(-c2cc(-c3nc(-c4ccc(=O)n(C5(C#N)CCCC5)c4)cnc3N)on2)cc1` [Compound I-143], for which the Ki in test [1] was no more than 5 nM. The “CP3 shift” value in test [2] worked out at 0.01 µM.

Take `CC(C)(C#N)n1cc(-c2cnc(N)c(-c3cc(-c4ccc(CNC5CCOC5)cc4)no3)n2)ccc1=O` (centres unmarked) [Compound I-145]: in test [1], the Ki is no more than 5 nM. Moreover, in test [2], the “CP3 shift” value was found to be 0.01 µM.
